From patent publication US20260076923A1, “METHOD AND COMPOSITION TO REDUCE OR INHIBIT ADVANCED GLYCATION END-PRODUCTS” (NANJING NUTRABUILDING BIO-TECH CO., LTD., priority 2023, published 2026) come the findings set out here.

One assay has as its system GSH-Px. Description: GSH-Px activity in skin of D-galactose-injected mice. The format is in vivo, Kunming mice. Conditions: end of the trial (14th week), 100 mg/kg each s.c. once daily for 6 weeks, compared to non-supplementation group, FIG. 8. The procedure:
(§1) Six-week-old, male, Kunming mice (n=40), weighed about 30±2 g, were obtained from Cavens Lab Animal (Changzhou, China) and housed in a controlled room (25±2° C., 60% relative humidity, 12 h light/dark cycle) with free access to water and standard laboratory diet. After an acclimation period (1 week), mice were randomly divided into four groups. Each mouse's back skin was chosen as the experimental observation area, a razor was used to shave off the back hair. 5% sodium sulfide solution was applied to the back to remove the hair.
(§2) All mice were then injected subcutaneously with same volume of D-galactose (1000 mg/kg), once a day for 8 weeks. During the entire experiment, the daily food intake and weight of each mouse were recorded every day, and the D-galactose injection dose were adjusted according to the weight change.
(§3) The four groups were non-supplement group (Con, Group 1); THC supplement group (100 mg/kg, Group 2); EGT supplement group (100 mg/kg, Group 3); and EGT+THC supplement group (100 mg/kg EGT+100 mg/kg THC, Group 4). Mice in groups 2-4 were injected subcutaneously (s.c.) into their back skins with the corresponding concentration before each major meal once daily for 6 weeks. […]
(§4) Oxidative stress is increased during aging. […] The levels of H2O2, SOD, CAT, GSH, and GSH-Px in the skin were detected with relative kits as reference. […]

The subject of another assay is AGEs. Description: Measurement of glycation: BSA incubated with D-ribose, fluorescence of the AGEs. Type of assay: biochemical, bovine. The following applies: BSA 1 mg/ml + D-ribose 10 mM in PBS, 37° C., 10 days; THC 10 mM and/or EGT 10 mM; λex=380 nm, λem=450 nm; FIG. 1.
For another assay, the system named is GSH. The assay can be described thus: GSH activity in skin of D-galactose-injected mice. The format is in vivo, Kunming mice. Conditions: end of the trial (14th week), 100 mg/kg each s.c. once daily for 6 weeks, compared to non-supplementation group, FIG. 7. The procedure:
as §1, §2, §3, §4

The next assay relates to SOD. The assay can be described thus: SOD activity in skin of D-galactose-injected mice. Conditions: end of the trial (14th week), 100 mg/kg each s.c. once daily for 6 weeks, compared to non-supplementation group, FIG. 5. Type of assay: in vivo, Kunming mice. The procedure: as §1, §2, §3, §4
Another assay concerns CAT. The assay can be described thus: CAT activity in skin of D-galactose-injected mice. The format is in vivo, Kunming mice. The following applies: end of the trial (14th week), 100 mg/kg each s.c. once daily for 6 weeks, compared to non-supplementation group, FIG. 6. On the procedure:
as §1, §2, §3, §4

SMILES strings stand for the structures.

Experimental for AGEs: The formulation of glycation products was observed placing together a bovine serum albumin (BSA) and D-ribose in the absence of THC and EGT, and in the presence of THC only, EGT only and THC and EGT combination.
Specifically, a solution of BSA at a concentration of 1 mg/ml dissolved in phosphate-buffered saline (PBS) was incubated at 37° C. for 10 days with D-ribose at a concentration of 10 mM, in the absence of THC and EGT (Group 1), and the presence of THC only (10 mM, Group 2), EGT only (10 mM, Group 3) and the THC (10 mM) and EGT (10 mM) combination (Group 4).
So, the glycation was evaluated by measuring the fluorescence of the AGEs at λem=450 nm emitted by each sample after excitation at λex=380 nm. The inhibition of glycation was visualized by the decrease in fluorescence compared with the samples treated with the sugar alone.

Take `C[N+](C)(C)[C@@H](Cc1c[nH]c(=S)[nH]1)C(=O)[O-]` [EGT, ergothioneine]: in the assay with GSH-Px, the GSH-Px activity result is reported as “significantly improved”. Further, the “percentage inhibition of fluorescence of the AGEs relative to the control (anti-glycation activity)” value in the assay with AGEs is “fabulous anti-glycation activity”. In addition, the GSH activity entry in the assay with GSH is on record as “significantly improved”. In addition, the SOD activity entry with SOD is “significantly improved”. In the assay on CAT, the CAT activity result is on record as “significantly improved”.
